Measurements published in patent publication US20230257372A1 (CHONG KUN DANG PHARMACEUTICAL CORP., priority 2020, published 2023).

Columns and labels:
human recombinant HDAC1 = target: T1, human recombinant HDAC1 (Homo sapiens, UniProt Q13547); assay: HDAC1 enzyme activity inhibition (HDAC Fluorimetric Drug Discovery Kit); assay type: biochemical; details: human recombinant HDAC1; IC50 calculated with GraphPad Prism; read-out: HDAC1
T1 construct: purchased Enzo Life Science, Inc. BML-SE456
Summary of the method: (§1)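 Fluorescence from a Fluor de Lys developer step (30 minutes) reports residual deacetylation after a 60-minute, 30° C reaction of […] enzyme with 10 μM substrate and 5-fold compound dilutions.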

human recombinant HDAC6 = target: T2, human recombinant HDAC6 (Homo sapiens, UniProt Q9UBN7); assay: HDAC6 enzyme activity inhibition (HDAC Fluorimetric Drug Discovery Kit); assay type: biochemical; details: for HDAC6 selectivity (fold): HDAC1 IC50 / HDAC6 IC50; for IC50: human recombinant HDAC6, IC50 calculated with GraphPad Prism
T2 construct: purchased Calbiochem Inc. 382180
T2 sequence (Q9UBN7 1-1215): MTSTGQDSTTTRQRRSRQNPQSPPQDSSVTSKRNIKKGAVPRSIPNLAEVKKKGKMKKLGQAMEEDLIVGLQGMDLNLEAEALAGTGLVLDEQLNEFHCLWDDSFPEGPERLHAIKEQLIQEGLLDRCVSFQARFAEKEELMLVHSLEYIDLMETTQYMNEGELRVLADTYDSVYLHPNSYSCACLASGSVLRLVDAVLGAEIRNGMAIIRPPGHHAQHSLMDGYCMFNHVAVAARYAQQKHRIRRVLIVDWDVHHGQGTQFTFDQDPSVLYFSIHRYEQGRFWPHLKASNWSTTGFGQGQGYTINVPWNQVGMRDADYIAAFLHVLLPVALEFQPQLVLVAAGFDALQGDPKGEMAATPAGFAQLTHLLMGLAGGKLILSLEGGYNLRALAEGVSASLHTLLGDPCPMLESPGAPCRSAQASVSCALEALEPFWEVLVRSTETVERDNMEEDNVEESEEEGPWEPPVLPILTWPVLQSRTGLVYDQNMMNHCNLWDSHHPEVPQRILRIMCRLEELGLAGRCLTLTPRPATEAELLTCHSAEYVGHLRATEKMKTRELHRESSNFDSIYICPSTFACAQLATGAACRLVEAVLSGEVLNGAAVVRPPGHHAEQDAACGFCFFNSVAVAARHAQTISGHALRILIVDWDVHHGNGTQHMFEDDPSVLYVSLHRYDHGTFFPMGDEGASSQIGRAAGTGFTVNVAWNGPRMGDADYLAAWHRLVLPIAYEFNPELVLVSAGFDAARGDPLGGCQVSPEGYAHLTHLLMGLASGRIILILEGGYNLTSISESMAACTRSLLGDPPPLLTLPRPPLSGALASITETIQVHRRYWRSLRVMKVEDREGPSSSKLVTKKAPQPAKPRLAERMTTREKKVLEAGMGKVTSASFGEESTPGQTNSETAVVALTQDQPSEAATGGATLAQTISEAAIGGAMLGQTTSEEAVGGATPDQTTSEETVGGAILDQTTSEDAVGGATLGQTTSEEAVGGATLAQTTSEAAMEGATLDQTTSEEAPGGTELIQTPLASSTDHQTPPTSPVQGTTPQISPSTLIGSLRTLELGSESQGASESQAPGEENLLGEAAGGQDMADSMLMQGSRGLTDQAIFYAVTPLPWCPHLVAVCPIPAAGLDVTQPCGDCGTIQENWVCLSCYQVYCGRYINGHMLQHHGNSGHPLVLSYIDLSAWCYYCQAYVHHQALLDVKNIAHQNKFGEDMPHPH
Summary of the method: as §1

[1] = tested on: hippocampal neurons from a Sprague-Dawley (SD) rat fetus; assay: Effect of HDAC6-specific inhibitor on axonal transport of mitochondria in amyloid-beta treated neurons; assay type: cell-based; details: transport velocity of mitochondria in neuronal axon after normalization; vehicle = 100%, amyloid beta treatment group = 0%; compound treatment for three hours
Method: On the 17th to 18th days (E17-18) of insemination, the hippocampal neurons from a Sprague-Dawley (SD) rat fetus were cultured in a culture container for imaging, which had been coated with extracellular matrix, and were treated with amyloid-beta protein fragments at a concentration of […]. In 24 hours later, the neurons were treated with the compound on the 8th day of in vitro culture. In three hours later, the resulting neurons were treated with MitoTracker Red CMXRos (Life Technologies, NY, USA) for last five minutes to stain mitochondria. An image on the axonal transport of stained neuron mitochondria was taken with a confocal microscope (Leica SP8; Leica microsystems, UK) at an interval of one second for one minute to measure a transport velocity of each mitochondria per second with an IMARIS analysis program (BITPLANE, Zurich, Switzerland).
In result, after setting a section, in which the group treated with amyloid-beta had shown a significant decrease in the transport velocity of mitochondria compared to a vehicle, it was confirmed for 1,3,4-oxadiazole triazol derivative compounds of the present invention, stereoisomers thereof or pharmaceutically acceptable salts thereof that the vehicles is represented as 100%, the amyloid beta treatment group is represented as 0%, a velocity distribution of the compound after normalization is represented as *, 0%˜50%; **, 50%˜100%; ***, >100%.

T1 sequence (Q13547 whole entry): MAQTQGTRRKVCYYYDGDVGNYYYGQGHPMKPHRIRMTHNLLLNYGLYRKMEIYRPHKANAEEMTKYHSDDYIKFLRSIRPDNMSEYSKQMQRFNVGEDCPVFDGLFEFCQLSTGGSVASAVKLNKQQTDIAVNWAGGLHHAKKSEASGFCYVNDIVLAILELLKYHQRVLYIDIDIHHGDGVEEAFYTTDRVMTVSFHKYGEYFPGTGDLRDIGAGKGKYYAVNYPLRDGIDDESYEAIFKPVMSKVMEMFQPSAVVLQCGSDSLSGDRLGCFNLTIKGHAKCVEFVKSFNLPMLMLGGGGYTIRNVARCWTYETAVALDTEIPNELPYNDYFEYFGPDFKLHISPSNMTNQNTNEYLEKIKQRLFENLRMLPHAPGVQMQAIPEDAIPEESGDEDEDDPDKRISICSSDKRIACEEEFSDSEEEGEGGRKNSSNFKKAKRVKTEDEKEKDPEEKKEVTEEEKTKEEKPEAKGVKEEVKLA

Row | SMILES | IC50 (human recombinant HDAC1) [nM] | HDAC6 selectivity (fold) (human recombinant HDAC6) | IC50 (human recombinant HDAC6) [nM] | Velocity distribution (%) [1]
1 | Fc1cc(-c2nnc(C(F)F)o2)ccc1Cn1cc(-c2ccccc2)nn1 [Compound 3658, 2-(difluoromethyl)-5-(3-fluoro-4-((4-phenyl-1H-1,2,3-triazol-1-yl)methyl)phenyl)-1,3,4-oxadiazole] | > 50000 | 863 | 57.9 | * (*, 0%˜50%)
2 | FC(F)c1nnc(-c2ccc(Cn3cc(-c4ccccc4)nn3)nc2)o1 [Compound 3736, 2-(difluoromethyl)-5-(6-((4-phenyl-1H-1,2,3-triazol-1-yl)methyl)pyridin-3-yl)-1,3,4-oxadiazole] | > 50000 | 2252 | 22.2 | *** (***, >100%)
3 | Cc1ccc(-c2cn(Cc3ccc(-c4nnc(C(F)F)o4)cn3)nn2)cc1 [Compound 3738, 2-(difluoromethyl)-5-(6-((4-(p-tolyl)-1H-1,2,3-triazol-1-yl)methyl)pyridin-3-yl)-1,3,4-oxadiazole] | > 50000 | 1136 | 44 | *** (***, >100%)
4 | CC(=O)Nc1cccc(-c2cn(Cc3ccc(-c4nnc(C(F)F)o4)cc3F)nn2)c1 [Compound 3775, N-(3-(1-(4-(5-(difluoromethyl)-1,3,4-oxadiazol-2-yl)-2-fluorobenzyl)-1H-1,2,3-triazol-4-yl)phenyl)acetamide] | > 50000 | 1712 | 29.2 | * (*, 0%˜50%)
5 | COC(=O)Nc1cccc(-c2cn(Cc3ccc(-c4nnc(C(F)F)o4)cc3F)nn2)c1 [Compound 3776, Methyl (3-(1-(4-(5-(difluoromethyl)-1,3,4-oxadiazol-2-yl)-2-fluorobenzyl)-1H-1,2,3-triazol-4-yl)phenyl)carbamate] | > 50000 | 1984 | 25.2 | *** (***, >100%)
6 | O=C(Nc1cccc(-c2cn(Cc3ccc(-c4nnc(C(F)F)o4)cc3F)nn2)c1)C(F)(F)F [Compound 3777, N-(3-(1-(4-(5-(difluoromethyl)-1,3,4-oxadiazol-2-yl)-2-fluorobenzyl)-1H-1,2,3-triazol-4-yl)phenyl)-2,2,2-trifluoroacetamide] | > 50000 | 2222 | 22.5 | * (*, 0%˜50%)
7 | CC(C)(C)C(=O)Nc1cccc(-c2cn(Cc3ccc(-c4nnc(C(F)F)o4)cn3)nn2)c1 [Compound 3825, N-(3-(1-((5-(5-(difluoromethyl)-1,3,4-oxadiazol-2-yl)pyridin-2-yl)methyl)-1H-1,2,3-triazol-4-yl)phenyl)pivalamide] | > 50000 | 4464 | 11.2 | *** (***, >100%)
8 | CCOC(=O)Nc1cccc(-c2cn(Cc3ccc(-c4nnc(C(F)F)o4)cn3)nn2)c1 [Compound 3826] | > 50000 | 4132 | 12.1 | * (*, 0%˜50%)
9 | FC(F)c1nnc(-c2ccc(Cn3cc(-c4cccc(NC5CCOCC5)c4)nn3)nc2)o1 [Compound 3827, N-(3-(1-((5-(5-(difluoromethyl)-1,3,4-oxadiazol-2-yl)pyridin-2-yl)methyl)-1H-1,2,3-triazol-4-yl)phenyl)tetrahydro-2H-pyran-4-amine] | > 50000 | 2487 | 20.1 | *** (***, >100%)
10 | FC(F)c1nnc(-c2ccc(Cn3nnc(-c4ccccc4)n3)nc2)o1 [Compound 4234, 2-(difluoromethyl)-5-(6-((5-phenyl-2H-tetrazol-2-yl)methyl)pyridin-3-yl)-1,3,4-oxadiazole] | > 50000 |  |  | *** (***, >100%)
11 | Fc1cc(-c2nnc(C(F)F)o2)ccc1Cn1cc(-c2ccc3[nH]ncc3c2)nn1 [Compound 4345, 2-(4-((4-(1H-indazol-5-yl)-1H-1,2,3-triazol-1-yl)methyl)-3-fluorophenyl)-5-(difluoromethyl)-1,3,4-oxadiazole] | > 50000 |  |  | * (*, 0%˜50%)
